Reference: patent US6924269B2, “Enzyme inhibitors and methods therefor” (VDF Futureceuticals, Inc., priority 2002, dated 2005)

How the values were obtained:
COX-1 = target: T1, COX-1 (Homo sapiens, UniProt P23219); assay: COX-1 enzyme inhibition study (human platelets, endogenous arachidonic acid, EIA of PGE2); assay type: biochemical
T1 construct: the source material was human platelets using endogenous arachidonic acid; endogenous in cells; host or cells: human platelets
Method: COX-1 enzyme inhibition study was performed using a protocol similar to protocols previously described (see e.g., Riendeau D, et al. in Brit. J. Pharmacol. (1997) 121:105-117; or Warner et al. in Proc. Natl. Acad.Sci. (1999) 96:7563-7568). Typically, the source material was human platelets using endogenous arachidonic acid (Vehicle 1% DMSO) at a preincubation time of 15 min at 37 Centigrades and an incubation time of 15 min at 37 Centigrades (Incubation buffer was HBSS buffer with 15mM HEPES pH7.4). Quantitative analysis was performed via EIA determination of PGE2.

COX-2 = target: T2, COX-2 (Homo sapiens, UniProt P35354); assay: COX-2 enzyme inhibition study (human recombinant, Sf9 cells, 0.3 microM arachidonic acid, PGE2 determination); assay type: biochemical
T2 construct: host or cells: Sf9 insect cells
T2 sequence (P35354 18-604): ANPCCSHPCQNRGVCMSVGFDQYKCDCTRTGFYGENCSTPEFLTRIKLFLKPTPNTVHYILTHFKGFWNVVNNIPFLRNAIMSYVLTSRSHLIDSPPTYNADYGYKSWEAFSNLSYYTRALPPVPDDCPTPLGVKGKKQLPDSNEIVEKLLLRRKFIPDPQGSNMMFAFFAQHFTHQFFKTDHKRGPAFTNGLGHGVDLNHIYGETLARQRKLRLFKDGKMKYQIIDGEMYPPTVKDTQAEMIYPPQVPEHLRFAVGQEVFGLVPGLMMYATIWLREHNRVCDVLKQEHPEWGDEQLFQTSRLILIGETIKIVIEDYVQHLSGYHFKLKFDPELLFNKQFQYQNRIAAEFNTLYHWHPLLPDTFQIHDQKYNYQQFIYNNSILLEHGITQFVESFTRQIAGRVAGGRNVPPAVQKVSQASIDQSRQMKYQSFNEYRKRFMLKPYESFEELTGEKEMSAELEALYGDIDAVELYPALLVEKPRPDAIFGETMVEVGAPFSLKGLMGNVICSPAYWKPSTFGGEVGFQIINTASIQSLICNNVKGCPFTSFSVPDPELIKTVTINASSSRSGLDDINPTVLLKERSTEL
Method: COX-2 enzyme inhibition study was performed using a protocol similar to protocols previously described (see e.g., Riendeau D, et al. in Can. J. Physiol. Pharmacol. (1997) 75:1088-11095; or Warner et al. in Proc. Natl. Acad.Sci. (1999) 96:7563-7568). Typically, the source material was human recombinant Sf9 cells using 0.3 microM arachidonic acid (Vehicle 1% DMSO) at a preincubation time of 15 min at 37 Centigrades and an incubation time of 15 min at 37 Centigrades (Incubation buffer was 100 mM Tris 1 mM Glutathione, 1 microM hematin, and 0.5mM phenol, pH7.7). Quantitative analysis was performed via ETA determination of PGE2.

T1 sequence (P23219 24-599): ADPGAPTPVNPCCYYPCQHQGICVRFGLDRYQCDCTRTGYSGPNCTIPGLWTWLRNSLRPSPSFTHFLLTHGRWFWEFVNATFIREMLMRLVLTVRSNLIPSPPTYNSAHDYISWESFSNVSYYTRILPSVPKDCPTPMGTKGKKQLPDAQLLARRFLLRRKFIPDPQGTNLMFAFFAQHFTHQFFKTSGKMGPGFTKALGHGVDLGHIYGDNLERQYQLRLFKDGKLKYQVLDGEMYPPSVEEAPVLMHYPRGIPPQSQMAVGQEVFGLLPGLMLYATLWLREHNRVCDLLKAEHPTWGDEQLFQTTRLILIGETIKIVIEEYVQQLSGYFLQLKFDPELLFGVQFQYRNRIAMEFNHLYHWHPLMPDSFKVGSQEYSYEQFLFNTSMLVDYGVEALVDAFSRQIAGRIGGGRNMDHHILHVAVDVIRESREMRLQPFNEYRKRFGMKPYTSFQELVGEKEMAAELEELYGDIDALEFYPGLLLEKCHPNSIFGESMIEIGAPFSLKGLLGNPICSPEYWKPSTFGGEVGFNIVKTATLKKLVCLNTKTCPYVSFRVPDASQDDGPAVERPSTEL

Row | Substance | COX-1 IC50 (COX-1) | COX-1 (% Inhib.) (COX-1; concentration 100 μg/ml) | COX-1 (% Inhib.) (COX-1; concentration 1000 μg/ml) | COX-1 (% Inhib.) (COX-1; concentration 10 mg/ml) | Selectivity COX-1 to COX-2 (COX-1; ratio of IC50 values, COX-1 over COX-2) | COX-2 IC50 (COX-2) | COX-2 (% Inhib.) (COX-2; concentration 100 μg/ml) | COX-2 (% Inhib.) (COX-2; concentration 1000 μg/ml) | COX-2 (% Inhib.) (COX-2; concentration 10 mg/ml) | Selectivity COX-2 to COX-1 (COX-2; ratio of IC50 values, COX-2 over COX-1)
1 | Calcium Fructoborate | 222 µg/mL | 29% | 85% | 95% | least 45-fold | >10000 µg/mL | 8% | 12% | 10% | –
2 | Potassium Boroascorbate | 8570 µg/mL | −5% | −2% | 69% | – | <100 µg/mL | 77% | 73% | 71% | least 85-fold
